These results are taken from patent US20050130903A1, “Therapeutic agents and methods of use thereof for the modulation of angiogenesis” (priority 2000, published 2005).

Data set [1] relates to bovine aortic endothelial cell. The data set can be described thus: bovine aortic endothelial cell growth assay (Baec assay). The data set is classed as cell-based. As for the experimental part: (§1) The angiogenesis inhibitor compounds of the invention were tested for their ability to modulate human endothelial cell growth and for their ability to modulate the activity of MetAP2. The MetAP2 enzyme assay was performed essentially as described in Turk, B. et al. (1999) Chem. & Bio. 6: 823-833, the entire contents of which are incorporated herein by reference. The bovine aortic endothelial cell growth assay (Baec assay) was performed essentially as described in Turk, B. et al. (supra), the entire contents of which are incorporated herein by reference.

Data set [2] can be described thus: stability in liver microsomes. Type of data set: in vitro ADME, rat. Particulars: NADPH regenerating system. The procedure:
The stability of the angiogenesis inhibitor compounds in liver microsomes was also tested. The test angiogenesis inhibitor compound at a concentration of 3 μM was incubated with male rat liver microsomes (0.5 mg/mL protein) in the presence of a NADPH regenerating system (1 mM NADP, 10 mM G6P, 1 U/mL G6PdH2, 3 mM MgCl2 ) in 100 mM Phosphate buffer at pH 7.4 at 37° C. Incubations were performed in the presence and absence of 1 μM epoxide hydrolase (EH) inhibitor N-cyclohexyl-N′-(3-phenylpropyl)urea (M. Morisseau et al. (1999) PNAS 96:8849-54) and quantitative analysis performed using LC/MS/MS.
The parent compound remaining (relative to time 0) in the incubation mixture was plotted as a function of time; a first order exponential equation was fit to the observed data, and the elimination half-lives associated with the disappearance of the test compound were determined.

Data set [3] relates to human umbilical vein endothelial cells (HUVEC). Kind of data set: human endothelial cell growth assay (Huvec assay). The data set is classed as cell-based. As for the experimental part:
For the human endothelial cell growth assay, human umbilical vein endothelial cells (HUVEC) were maintained in Clonetics endothelial growth medium (EGM) in a 37° C. humidified incubator. Cells were detached with trypsin and pelleted by centrifugation at 300×g for 5 minutes at room temperature. HUVEC were added to 96-well plates at 5,000 cells/well. After incubating for 6 hours, the medium was replaced with 0.2 ml fresh EGM supplemented with 0.5 nM bFGF and the desired concentration of test angiogenesis inhibitor compound. Test angiogenesis inhibitor compounds were initially dissolved in ethanol at stock concentrations of either 10 mM or 0.1 mM, and subsequently diluted in EGM to obtain concentrations from […] to 10 μM. After 48 hours at 37° C., the medium was replaced with fresh bFGF-supplemented EGM and test angiogenesis inhibitor compound. Following incubation for an additional 48 hours at 37° C. MTT (3-[4,5-dimethylthiazol-2-yl]-2,5-diphenyl-tetrazolium bromide) was added to 1 mg/ml. After 2-4 hours at 37° C. the medium was replaced with 0.1 ml/well isopropanol. The plates were placed on a shaker for 15 minutes at room temperature and analyzed in a Labsystems Multiskan plate spectrophotometer at an optical density of 570 nm.

The target of a further data set is T1, MetAP2 (Homo sapiens, UniProt P50579).
T1 construct: made in house; host or cells: insect cells
Kind of data set: MetAP2 enzyme assay. The data set is classed as biochemical. As for the experimental part: Finally, the ability of the angiogenesis inhibitor compounds of the invention to modulate the activity of MetAP2 may be tested as follows. Recombinant human MetAP2 may be expressed and purified from insect cells as described in Li and Chang, (1996) Biochem. Biophys. Res. Commun. 227:152-159. Various amounts of angiogenesis inhibitor compound is then added to buffer H (10 mM Hepes, pH 7.35, 100 mM KCl, 10% glycerol, and […]) containing 1 nM purified recombinant human MetAP2 and incubated at 37° C. for 30 minutes. To start the enzymatic reaction a peptide containing a methionine residue, e.g., Met-Gly-Met, is added to the reaction mixture (to a concentration of 1 mM). Released methionine is subsequently quantified at different time points (e.g., at 0, 2, 3, and 5 minutes) using the method of Zou et al. (1995) Mol. Gen Genetics 246:247-253).
as §1

Data set [4] in a line: plasma stability in human plasma. Particulars: human plasma, 37° C., 20 μM. Type of data set: in vitro ADME. The procedure: The plasma stability of the angiogenesis inhibitor compounds of the invention was also tested in human plasma at 37° C. (at a 20 μM concentration of the angiogenesis inhibitor compound). The matrix minus the test angiogenesis inhibitor compound was equilibrated at 37° C. for 3 minutes. The assay was initiated by addition of the test compound, and the reaction mixture was incubated in a shaking water bath at 37° C. […] The supernatant was analysed by Liquid Chromatography/Mass spectrometry (LC/MS) using a four point standard curve to obtain percent recovery.
The parent compound remaining (relative to time 0) in the incubation mixture was plotted as a function of time; a first order exponential equation was fit to the observed data, and the elimination half-lives associated with the disappearance of the test angiogenesis inhibitor compound were determined.

[5] abbreviates: Homo sapiens, HUVEC, bFGF-supplemented EGM, MTT.

Read-outs that look alike come from different tables or passages of the source. Square brackets hold non-standard residues; d marks the D form. Peptide text beside a SMILES is read from it. * marks the point of attachment. ξ: configuration not given here. X1 = CO[C@H]1C([C@@]2(C)O[C@@H]2CC=C(C)C)[C@]2(CC[C@H]1OC(=O)N[C@@H](CO*)C(C)C)CO2; X2 = CO[C@@H]1[C@H](OC(=O)*)CC[C@]2(CO2)[C@H]1[C@@]1(C)O[C@@H]1CC=C(C)C; X3 = CO[C@@H]1[C@H](OC(=O)*)CC[C@]2(CO2)[C@H]1[C@@]1(C)O[C@@H]1CCC(C)C; ξP = O=C(O)C1CCCN1

T1 sequence (P50579 whole entry): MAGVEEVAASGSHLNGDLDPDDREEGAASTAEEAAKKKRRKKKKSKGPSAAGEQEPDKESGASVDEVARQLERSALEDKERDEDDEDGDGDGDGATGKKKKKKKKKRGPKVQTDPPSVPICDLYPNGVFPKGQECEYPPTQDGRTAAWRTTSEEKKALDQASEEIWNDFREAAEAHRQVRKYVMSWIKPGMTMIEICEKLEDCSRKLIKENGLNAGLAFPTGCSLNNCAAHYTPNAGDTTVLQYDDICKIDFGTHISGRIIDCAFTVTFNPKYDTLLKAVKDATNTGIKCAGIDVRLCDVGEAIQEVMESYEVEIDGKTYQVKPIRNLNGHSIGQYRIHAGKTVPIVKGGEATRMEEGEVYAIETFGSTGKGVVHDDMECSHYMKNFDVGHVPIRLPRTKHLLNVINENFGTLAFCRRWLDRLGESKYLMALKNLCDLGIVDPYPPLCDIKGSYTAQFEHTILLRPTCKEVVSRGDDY

In data set [1], `CO[C@@H]1[C@H](OC(=O)N[C@@H](COC(=O)[C@H](C)NC(=O)[C@H](Cc2c[nH]c3ccccc23)NC(=O)[C@@H](N)CCSC)C(C)C)CC[C@]2(CO2)[C@H]1[C@@]1(C)O[C@@H]1CC=C(C)C` [Example 22, (ID#37)-(2R-{(3R,4S,5S,6R) 5-methoxy-4-[(2R,3R)2-methyl-3-(3-methyl-but-2-enyl)-oxiranyl]-1-oxa-spiro[2.5]oct-6-yloxycarbonyl}amino-3-methyl-butanol)ester] displayed an IC50 of 0.326 nM.

Regarding `CO[C@@H]1[C@H](OC(=O)NC(=O)CCl)CC[C@]2(CO2)[C@H]1[C@@]1(C)O[C@@H]1CC=C(C)C` [TNP-470, reference compound], the “T1/2 (with EH inhibitor)” value in data set [2] (male rat liver microsomes 0.5 mg/mL, 3 μM, with 1 μM EH inhibitor) is >1.0 min. Also, the half-life at 3 μM in data set [2] (pH 7.4, male rat liver microsomes 0.5 mg/mL, without EH inhibitor, read-out: T1/2 (without EH inhibitor)) was > 1 min.

For `COC(=O)[C@@H](CC(C)C)NC(=O)O[C@@H]1CC[C@]2(CO2)[C@@H]([C@@]2(C)O[C@@H]2CC=C(C)C)[C@@H]1OC` [Example 3, 2-{(3R,4S,5S,6R)-5-Methoxy-4-[(2R,3R)-2-methyl-3-(3-methyl-but-2-enyl)-oxiranyl]-1-oxa-spiro[2.5]oct-6-yloxycarbonylamino}-4-methyl-pentanoic acid methyl ester], the IC50 in data set [3] (setting [5]) turned out to be 0.038 nM; on MetAP2 (read-out: MetAP2 Assay IC50) it was 5.5 nM; in data set [1] (Bos taurus, BAEC) it was 0.118 nM.

For `CO[C@H]1C([C@@]2(C)O[C@@H]2CC=C(C)C)[C@]2(CC[C@H]1OC(=O)N[C@@H](COC(=O)[C@H](C)NC(=O)[C@H](Cc1c[nH]c3ccccc13)NC(=O)[C@H](CCSC)NC(=O)CNC(=O)[C@H](CC(C)C)NC(=O)[C@@H]1CCCN1C(C)=O)C(C)C)CO2` (stereo partly drawn) [Example 20, (ID#24)-(2R-{(3R,4S,5S,6R) 5-methoxy-4-[(2R,3R)2-methyl-3-(3-methyl-but-2-enyl)-oxiranyl]-1-oxa-spiro[2.5]oct-6-yloxycarbonyl}amino-3-methyl-butanol)ester] (Ac-PLGMWA-X1), in data set [4] (0 min, read-out: Percent Recovery (Remaining) 0 min), the recovery at 0 min, 20 μM turned out to be 110%. Further, the recovery at 15 min, 20 μM in data set [4] (15 min, read-out: Percent Recovery (Remaining) 15 min) worked out at 114%. Moreover, the recovery at 30 min, 20 μM in data set [4] (30 min, read-out: Percent Recovery (Remaining) 30 min) came out at 114%. For the same compound, the recovery at 60 min, 20 μM in data set [4] (60 min, read-out: Percent Recovery (Remaining) 60 min) was 120%. Besides, the recovery at 90 min, 20 μM in data set [4] (90 min, read-out: Percent Recovery (Remaining) 90 min) worked out at 106%. For the same compound, in data set [4] (120 min, read-out: Percent Recovery (Remaining) 120 min), the recovery at 120 min, 20 μM stood at 103%. In data set [4] (first order fit, read-out: T1/2), the half-life at 20 μM is ≥ 500 min.

In the case of `CO[C@@H]1[C@H](OC(=O)N[C@@H](COC(=O)CNC(=O)[C@@H](N)CCSC)C(C)C)CC[C@]2(CO2)[C@H]1[C@@]1(C)O[C@@H]1CC=C(C)C` [Example 23, (ID#38)-(2R-{(3R,4S,5S,6R) 5-methoxy-4-[(2R,3R)2-methyl-3-(3-methyl-but-2-enyl)-oxiranyl]-1-oxa-spiro[2.5]oct-6-yloxycarbonyl}amino-3-methyl-butanol)ester], in data set [1], it took 0.207 nM to reach half-maximal inhibition (IC50).

For `COC(=O)[C@@H](NC(=O)O[C@@H]1CC[C@]2(CO2)[C@@H]([C@@]2(C)O[C@@H]2CC=C(C)C)[C@@H]1OC)C(C)C` [Example 1, 2-{(3R,4S,5S,6R)-5-Methoxy-4-[(2R,3R)-2-methyl-3-(3-methyl-but-2-enyl)-oxiranyl]-1-oxa-spiro[2.5]oct-6-yloxycarbonylamino}-3-methyl-butyric acid methyl ester], the IC50 is 0.018 nM in data set [3] (setting [5]); 4.7 nM on MetAP2 (read-out: MetAP2 Assay IC50); 0.017 nM in data set [1] (Bos taurus, BAEC).

Take `CO[C@@H]1[C@H](OC(=O)NCC(=O)N2CCCC2C(=O)N[C@@H](CC(C)C)C(=O)NCC(=O)N[C@@H](CCSC)C(=O)N[C@@H](Cc2c[nH]c3ccccc23)C(=O)N[C@@H](C)C(=O)NCC(N)=O)CC[C@]2(CO2)[C@H]1[C@@]1(C)O[C@@H]1CC=C(C)C` (some centres unmarked) [Example 17] (X2-G[ξP]LGMWAG-NH2): the IC50 is 95 nM in data set [3] and 16.7 nM against MetAP2.

Regarding `COC(=O)[C@H](NC(=O)O[C@@H]1CC[C@]2(CO2)[C@@H]([C@@]2(C)O[C@@H]2CC=C(C)C)[C@@H]1OC)C(C)C` [Example 2, 2-{(3R,4S,5S,6R)-5-Methoxy-4-[(2R,3R)-2-methyl-3-(3-methyl-but-2-enyl)-oxiranyl]-1-oxa-spiro[2.5]oct-6-yloxycarbonylamino}-3-methyl-butyric acid methyl ester], the IC50 in data set [3] (setting [5]) stood at 0.04 nM; on MetAP2 (read-out: MetAP2 Assay IC50), 2 nM; in data set [1] (Bos taurus, BAEC) it was 0.048 nM.

In the case of `COc1ccc(C[C@H](NC(=O)[C@H](CC(=O)O)NC(=O)CNC(=O)[C@H](CCCNC(=N)N)NC(=O)CNC(=O)O[C@@H]2CC[C@]3(CO3)[C@@H]([C@@]3(C)O[C@@H]3CCC(C)C)[C@@H]2OC)C(=O)N[C@@H](CCCNC(=N)N)C(=O)N[C@@H](CCC(=O)O)C(N)=O)cc1` [Example 14] (X3-GRGDY(Me)RE-NH2), the figures for the IC50 (in data set [3]; at MetAP2) were > 10000 nM and 4000 nM, respectively.

Consider `COC(=O)[C@H](NC(=O)O[C@@H]1CC[C@]2(CO2)[C@@H]([C@@]2(C)O[C@@H]2CC=C(C)C)[C@@H]1OC)c1ccccc1` [Example 4, {(3R,4S,5S,6R)-5-Methoxy-4-[(2R,3R)-2-methyl-3-(3-methyl-but-2-enyl)-oxiranyl]-1-oxa-spiro[2.5]oct-6-yloxycarbonylamino}-phenyl-acetic acid methyl ester], for which, on MetAP2 (read-out: MetAP2 Assay IC50), the IC50 was 2.7 nM.

On to `CO[C@@H]1[C@H](OC(=O)NCC(=O)N[C@@H](CCCNC(=N)N)C(=O)NCC(=O)N[C@@H](CC(=O)O)c2cccnc2)CC[C@]2(CO2)[C@H]1[C@@]1(C)O[C@@H]1CC=C(C)C` [Example 16, N-Carbamoyl (ID#40) (3R,4S,5S,6R) 5-methoxy-4-[(2R,3R)2-methyl-3-(3-methyl-but-2-enyl)-oxiranyl]-1-oxa-spiro[2.5]oct-6-yl ester], for which the IC50 in data set [1] was > 100 nM.
